Data on 9 compounds can be found in ChEMBL document CHEMBL1255349, “Comparison of the efficacies of oral beta-lactams in selection of Haemophilus influenzae transformants with mutated ftsI genes” (2008).

Values after ≈ are worked out from the molar mass of the structure shown.

Format in all cases: functional
In assay [1] the test system is Haemophilus influenzae. As to the kind of experiment: Antimicrobial activity against beta lactamase-nonproducing ampicillin-resistant Haemophilus influenzae MSC06663 isolate harboring Met377Ile, Ser385Thr and Asn526Lys mutations in penicillin-binding protein 3 by broth dilution method. Background: In broth dilution the organism is exposed to a series of concentrations in liquid medium.

Assay [2] deals with Haemophilus influenzae. As to the kind of experiment: Antimicrobial activity against rifampin-resistant Haemophilus influenzae Rd clone by broth dilution method.
Assay [3] deals with Haemophilus influenzae. As to the kind of experiment: Antimicrobial activity against beta lactamase-nonproducing ampicillin-resistant Haemophilus influenzae MSC06647 isolate harboring Asn526Lys mutation in penicillin-binding protein 3 by broth dilution method.

As to `CC1(C)S[C@@H]2[C@H](NC(=O)[C@H](N)c3ccc(O)cc3)C(=O)N2[C@H]1C(=O)O` [AMOXICILLIN], the MIC in the assay on Haemophilus influenzae [1] is 1 µg/mL (≈ 2.74 µM); in the assay with Haemophilus influenzae [2], 0.5 µg/mL (≈ 1.37 µM); against Haemophilus influenzae [3] it was 4 µg/mL (≈ 10.9 µM).
For `CC1(C)S[C@@H]2[C@H](NC(=O)[C@H](N)c3ccccc3)C(=O)N2[C@H]1C(=O)O` [AMPICILLIN] the same measures were 1 µg/mL (≈ 2.86 µM), 0.25 µg/mL (≈ 0.715 µM) and 2 µg/mL (≈ 5.72 µM).
For the compound `CC/C=C(\C(=O)N[C@@H]1C(=O)N2C(C(=O)O)=C(COC(N)=O)CS[C@H]12)c1csc(N)n1` [CEFCAPENE], the values for the MIC against Haemophilus influenzae [1], against Haemophilus influenzae [2] and against Haemophilus influenzae [3] were 2 µg/mL (≈ 4.41 µM), 0.008 µg/mL (≈ 0.0176 µM) and 0.25 µg/mL (≈ 0.551 µM), respectively.
In the case of `C=CC1=C(C(=O)O)N2C(=O)[C@@H](NC(=O)/C(=N\O)c3csc(N)n3)[C@H]2SC1` [CEFDINIR], the MIC amounted to 2 µg/mL (≈ 5.06 µM) with Haemophilus influenzae [1], 0.25 µg/mL (≈ 0.632 µM) against Haemophilus influenzae [2] and 1 µg/mL (≈ 2.53 µM) with Haemophilus influenzae [3].
Regarding `CO/N=C(\C(=O)N[C@@H]1C(=O)N2C(C(=O)OCOC(=O)C(C)(C)C)=C(/C=C\c3scnc3C)CS[C@H]12)c1csc(N)n1` [CEFDITOREN PIVOXIL], the MIC was 0.5 µg/mL (≈ 0.805 µM) against Haemophilus influenzae [1], 0.008 µg/mL (≈ 0.0129 µM) with Haemophilus influenzae [2] and 0.06 µg/mL (≈ 0.0967 µM) against Haemophilus influenzae [3].
`COCC1=C(C(=O)O)N2C(=O)[C@@H](NC(=O)/C(=N\OC)c3csc(N)n3)[C@H]2SC1` [CEFPODOXIME]: the MIC was found to be 8 µg/mL (≈ 18.7 µM) in the assay with Haemophilus influenzae [1], 0.03 µg/mL (≈ 0.0702 µM) against Haemophilus influenzae [2] and 1 µg/mL (≈ 2.34 µM) in the assay on Haemophilus influenzae [3].
As to `CC=CC1=C(C(=O)O)N2C(=O)[C@@H](NC(=O)[C@H](N)c3ccc(O)cc3)[C@H]2SC1` [CEFPROZIL], the MIC amounted to 4 µg/mL (≈ 10.3 µM) against Haemophilus influenzae [1], 2 µg/mL (≈ 5.14 µM) against Haemophilus influenzae [2] and 4 µg/mL (≈ 10.3 µM) with Haemophilus influenzae [3].
For `CO/N=C(\C(=O)N[C@@H]1C(=O)N2C(C(=O)O)=C(COC(N)=O)CS[C@H]12)c1ccco1` [CEFUROXIME], the MIC in the assay with Haemophilus influenzae [1] came to 2 µg/mL (≈ 4.71 µM); in the assay with Haemophilus influenzae [2] it was 0.5 µg/mL (≈ 1.18 µM); in the assay with Haemophilus influenzae [3], 2 µg/mL (≈ 4.71 µM).
`C[C@@H](O)[C@H]1C(=O)N2C(C(=O)O)=C(SC3CN(C4=NCCS4)C3)[C@H](C)[C@H]12` [TEBIPENEM]: the MIC against Haemophilus influenzae [1] was determined as 0.25 µg/mL (≈ 0.652 µM); in the assay on Haemophilus influenzae [2], 0.06 µg/mL (≈ 0.156 µM); against Haemophilus influenzae [3], 1 µg/mL (≈ 2.61 µM).
